The test system of test [1] is HepG2. As to the kind of experiment: Induction of apoptosis in human HepG2 cells assessed as viable cells at 25 uM after 48 hrs using annexin V-FITC/propidium iodide staining by flow cytometry (reference value: 86.80%). The class given is functional. The conditions noted are these: HepG2, 48 h, read-out: Activity. On the technique in general: Flow cytometry measures light scatter and fluorescence of single cells or particles in a stream.

Test [2] deals with HepG2. As to the kind of experiment: Induction of apoptosis in human HepG2 cells assessed as late stage apoptotic cells at 12.50 uM after 48 hrs using annexin V-FITC/propidium iodide staining by flow cytometry (reference value: 0.65%). The class given is functional.
The test system of test [3] is HepG2. As to the kind of experiment: Induction of apoptosis in human HepG2 cells assessed as necrotic cells at 12.50 uM after 48 hrs using annexin V-FITC/propidium iodide staining by flow cytometry (reference value: 2.39%). The class given is functional.
Test [4] concerns HepG2. Description: Induction of apoptosis in human HepG2 cells assessed as early stage apoptotic cells at 12.50 uM after 48 hrs using annexin V-FITC/propidium iodide staining by flow cytometry (reference value: 10.15%). The class given is functional.
Test [5] relates to HepG2. Description: Induction of apoptosis in human HepG2 cells assessed as early stage apoptotic cells at 6.25 uM after 48 hrs using annexin V-FITC/propidium iodide staining by flow cytometry (reference value: 10.15%). The class given is functional.
In test [6] the test system is HepG2. Description: Induction of apoptosis in human HepG2 cells assessed as apoptotic rate at 25 uM after 48 hrs using annexin V-FITC/propidium iodide staining by flow cytometry (reference value: 10.80%). The class given is functional.
For test [7], the system named is HepG2. As to the kind of experiment: Induction of apoptosis in human HepG2 cells assessed as apoptotic rate at 12.50 uM after 48 hrs using annexin V-FITC/propidium iodide staining by flow cytometry (reference value: 10.80%). The class given is functional.
For the next test, the system named is SMMC-7721. Description: Cytotoxicity against human SMMC7721 cells assessed as decrease in cell viability after 48 hrs by MTT assay. The class given is functional, cell-based. The conditions noted are these: SMMC-7721, 48 h. In general terms: Formazan colour is commonly taken as a measure of viable cells.
Test [8] has as its system HepG2. As to the kind of experiment: Induction of apoptosis in human HepG2 cells assessed as late stage apoptotic cells at 25 uM after 48 hrs using annexin V-FITC/propidium iodide staining by flow cytometry (reference value: 0.65%). The class given is functional.
The subject of test [9] is HepG2. Description: Induction of apoptosis in human HepG2 cells assessed as viable cells at 12.50 uM after 48 hrs using annexin V-FITC/propidium iodide staining by flow cytometry (reference value: 86.80%). The class given is functional. The conditions noted are these: HepG2, 48 h, read-out: Activity.
The test system of test [10] is HepG2. Description: Induction of apoptosis in human HepG2 cells assessed as apoptotic rate at 6.25 uM after 48 hrs using annexin V-FITC/propidium iodide staining by flow cytometry (reference value: 10.80%). The class given is functional.
Test [11] concerns HepG2. Description: Induction of apoptosis in human HepG2 cells assessed as late stage apoptotic cells at 6.25 uM after 48 hrs using annexin V-FITC/propidium iodide staining by flow cytometry (reference value: 0.65%). The class given is functional.
Test [12] relates to HepG2. Description: Induction of apoptosis in human HepG2 cells assessed as early stage apoptotic cells at 25 uM after 48 hrs using annexin V-FITC/propidium iodide staining by flow cytometry (reference value: 10.15%). The class given is functional.
For test [13], the system named is HepG2. As to the kind of experiment: Induction of apoptosis in human HepG2 cells assessed as necrotic cells at 25 uM after 48 hrs using annexin V-FITC/propidium iodide staining by flow cytometry (reference value: 2.39%). The class given is functional.
For test [14], the system named is HepG2. Description: Induction of apoptosis in human HepG2 cells assessed as viable cells at 6.25 uM after 48 hrs using annexin V-FITC/propidium iodide staining by flow cytometry (reference value: 86.80%). The class given is functional. Particulars: HepG2, 48 h, read-out: Activity.
Another test has as its system MCF7. As to the kind of experiment: Cytotoxicity against human MCF7 cells assessed as decrease in cell viability after 48 hrs by MTT assay. The class given is functional, cell-based. Particulars: MCF7, 48 h.
The subject of test [15] is HepG2. Description: Cytotoxicity against human HepG2 cells assessed as decrease in cell viability after 48 hrs by MTT assay. The class given is functional, cell-based. Particulars: HepG2, 48 h.
Test [16] has as its system HepG2. Description: Induction of apoptosis in human HepG2 cells assessed as necrotic cells at 6.25 uM after 48 hrs using annexin V-FITC/propidium iodide staining by flow cytometry (reference value: 2.39%). The class given is functional.

Molecules are shown by their SMILES. A value given as a limit tells only on which side of the number the result lay.

By IC50 is commonly meant the point on the concentration scale where inhibition reaches its midpoint. `C/C=C1/CN(C)[C@H]2Cc3c([nH]c4ccccc34)[C@H](c3cc4c5c6n(c4cc3OC)C[C@H]3C[C@@H](CC)[C@@H](NCC5)[C@@]6(C(=O)OC)C3)C[C@H]1[C@]2(CO)C(=O)OC`: in the test on HepG2 [1], the viability at 25 µM amounted to 33.9%. The Activity in the test with HepG2 [2] worked out at 8.47%; in the test on HepG2 [3], 7.85%; with HepG2 [4] it was 11.3%; in the test on HepG2 [5], 10.19%; in the test with HepG2 [6] it was 50.51%; in the test on HepG2 [7] it was 19.77%. Further, the Activity was found to be 30.97% in the test with HepG2 [8]; 11.82% in the test with HepG2 [10]; 1.63% with HepG2 [11]; 19.54% in the test on HepG2 [12]; 15.59% with HepG2 [13]; 3.17% in the test with HepG2 [16]. Also, the IC50 was 6.76 µM in the test with SMMC-7721, 8.54 µM in the test on MCF7 and 3.31 µM in the test with HepG2 [15]. Further, in the test on HepG2 [9], the viability at 12.5 µM was determined as 72.4%. Further, in the test with HepG2 [14], the viability at 6.25 µM was 85%.
As for `C/C=C1/CN(C)[C@H]2Cc3c([nH]c4ccccc34)[C@H](c3cc4c(cc3OC)c3c5n4C[C@H]4C[C@@H](CC)[C@@H](NCC3)[C@@]5(C(=O)OC)C4)C[C@H]1[C@]2(CO)C(=O)OC`, the IC50 in the test on SMMC-7721 stood at 15 µM; in the test on MCF7, 11 µM; with HepG2 [15], 11.3 µM.
On the same counts, the results for `CC[C@]1(C(=O)O)C[C@@H](C(=O)OC)C2=Nc3cc(OC)ccc3[C@@]23CCN(CCO)[C@@H]13` are more than 100 µM, more than 100 µM and more than 100 µM.
As to `CC[C@]1(C(=O)O)C[C@@H](C(=O)OC)C2=Nc3cc(OC)ccc3[C@@]23CCN(CCO)[C@H]13`, the IC50 with SMMC-7721, with MCF7 and with HepG2 [15] was more than 100 µM throughout.
For the compound `CC[C@@]12C[C@@H](C(=O)OC)C3=Nc4cc(OC)ccc4[C@@]34CCN(CCOC1=O)[C@@H]24`, the IC50 with SMMC-7721, in the test with MCF7 and with HepG2 [15] was more than 100 µM in each case.
In the case of `CC[C@@]12C[C@@H](C(=O)OC)C3=Nc4cc(OC)ccc4[C@@]34CCN(CCOC1=O)[C@H]24`, the IC50 in the test with SMMC-7721, with MCF7 and in the test on HepG2 [15] was more than 100 µM each time.
For `CC[C@H]1C[C@@H]2Cn3c4c(c5ccc(OC)cc53)CCN[C@H]1[C@@]4(C(=O)OC)C2`, the IC50 in the test on SMMC-7721, in the test on MCF7 and in the test with HepG2 [15] was more than 100 µM each time.
In the case of `COC(=O)[C@@]12C[C@@H]3C[C@H]([C@H](C)O)[C@H]1NCCc1c2n(c2cc(OC)ccc12)C3`, the IC50 in the test on SMMC-7721, in the test on MCF7 and with HepG2 [15] was more than 100 µM throughout.
In the case of `CC[C@H]1C[C@H]2C[C@@]3(C(=O)OC)c4c(c5ccc(OC)cc5n4C2=O)CCN[C@H]13`, the IC50 in the test with SMMC-7721, with MCF7 and in the test with HepG2 [15] was more than 100 µM each time.
As to `COC(=O)[C@@]12C[C@@H]3C[C@H]([C@H](C)O)[C@H]1NCCc1c2n(c2ccccc12)C3`, the IC50 in the test on SMMC-7721, with MCF7 and in the test with HepG2 [15] was more than 100 µM in each case.
For `C/C=C1/CN(C)[C@H]2Cc3c([nH]c4ccccc34)[C@H](c3c(OC)ccc4c5c([nH]c34)[C@@]3(C(=O)OC)C[C@H]4C[C@H](CC)[C@@H]3N(CC5)C4)C[C@H]1[C@]2(CO)C(=O)OC`, the values for the IC50 in the test with SMMC-7721, with MCF7 and in the test on HepG2 [15] were 12.6 µM, 14.6 µM and 13.1 µM, respectively.
For the compound `C/C=C1/CN(C)[C@H]2Cc3c([nH]c4ccccc34)[C@H](c3cc4c5c([nH]c4cc3OC)[C@@]3(C(=O)OC)C[C@H]4C[C@H](CC)[C@H]3N(CC5)C4)C[C@H]1[C@]2(CO)C(=O)OC`, the IC50 in the test with SMMC-7721 is 4.63 µM; in the test with MCF7 it was 38 µM; in the test on HepG2 [15], 12.8 µM.

The values above are taken from ChEMBL document CHEMBL3286395, “Tabercarpamines A-J, apoptosis-inducing indole alkaloids from the leaves of Tabernaemontana corymbosa” (J Nat Prod, 2014).
